Measured values taken from US7537906B2, “Apoptosis inducer and method of screening for a substance inhibiting acylated homoserine lactone” (priority 2003, dated 2009).

What was measured:
[1] = tested on: ERK; experiment: MAP kinase activity by Western blot in CaCo-2 cells: phosphorylated ERK; type: cell-based, human
Experimental: (§1) A CaCo-2 carcinoma cell line of human colon cancer was purchased from American Type Culture Collection (ATCC), and cultured at 37° C. in the presence of 5% CO2 using a DMEM medium containing 10% FCS, 1% NEAA and 1% P/S (100 units/ml penicillin and 100 μg/ml streptomycin).
(§2) 6×10^5 CaCo-2 cells were inoculated per dish using 6 cm dishes (NUNC), washed twice with phosphate buffered saline (PBS) (-), and then cultured in a serum-free DMEM medium containing 1% NEAA for 24 hours. Subsequently, at a final concentration of 100 μM, homoserine lactone hydrochloride and N-(3-oxododecanoyl)-L-homoserine lactone were each added, and then each solution was allowed to react for 10 minutes. Furthermore, purified acylated homoserine lactone used herein had been dissolved in DMSO in a concentration 400 times higher than the target final concentration, and then subjected to filter sterilization (φ 0.22 μm). As a control, DMSO with a final concentration of 0.25% was used. In addition, α-tubulin was used as an internal standard.
(§3) After reaction, the product was washed twice with cold PBS (-), and then frozen at −80° C. The cells were thawed on ice. 200 μl of a lysis buffer (50 mM HEPES, pH 7.5, 50 mM NaCl, 1 mM EDTA, 1.5 mM MgCl2, 1% Triton X-100, 10% glycerin, 10 mM sodium pyrophosphate, 1 mM Na3VO4, 100 mM NaF, 1 mM PMSF, 10 μg/ml aprotinin and 10 μg/ml leupeptin) was added to the cells, and then the cells were scraped off using a scraper. The cells were allowed to stand on ice for 20 minutes, and then centrifuged at 14000 rpm at 4° C. for 15 minutes, thereby collecting the supernatant. Concentration of the collected protein was measured, and then the protein equivalent to 50 μg was subjected to SDS-PAGE. After electrophoresis, the product was blotted on a PVDF membrane. When phosphorylated ERK, JNK, p38 and Akt were measured, blocking was carried out with 0.1% Tween 20 (TBS-T) containing 5% skim milk/Tris-buffered saline. As primary antibodies, an anti-phospho-p44/42 MAP kinase antibody, an anti-phospho-SAPK/JNK antibody, an anti-phospho-p38 MAP kinase antibody, and an anti-phospho-Akt ([…]) antibody were each used. As a secondary antibody, an HRP-labeled anti-rabbit IgG antibody was used. For the α-tubulin used as an internal standard, blocking was carried out with 5% bovine serum albumin (BSA)/TBS-T, and an anti-α-tubulin (Ab-1) antibody and an HRP-labeled anti-mouse IgG antibody were used as a primary antibody and a secondary antibody, respectively. For band detection, Renaissance™ Western Blot Chemiluminescence […] Reagent Plus (NEN) or Western Blotting Luminol Reagent (SANTA CRUZ BIOTECHNOLOGY) was used.
(§4) After cell culture, MAP kinase activity and Akt activity were analyzed by Western blot in a manner similar to that used in (1), except that N-(3-oxododecanoyl)-L-homoserine lactones in final concentrations of 0 μM (0.25% DMSO), 1 μM, 10 μM, 30 μM and 100 μM were each added and each solution was allowed to react for 10 minutes (FIG. 8).
(§5) After cell culture, N-(3-oxododecanoyl)-L-homoserine lactone with final concentrations of 30 μM and 100 μM were added. For each case, MAP kinase activity and Akt activity were measured by Western blot in a manner similar to that in (1), except for carrying out stimulation with acylated homoserine lactone in a short time course of 0, 5, 10, 30 and 60 minutes (FIG. 11), and in a long time course of 0, 10 minutes, 60 minutes, 2 hours, 4 hours, 6 hours, 8 hours and 10 hours (FIG. 12). In the case of stimulation at 30 μM, both ERK and p38 activities increased with a peak at 10 minutes. However, while ERK activity returned to the base level within 30 minutes, p38 activity lasted until 4 hours after stimulation. The inhibition of Akt activity in the case of stimulation at 30 μM peaked at 5 minutes and lasted until 60 minutes after stimulation, and returned to the base level within 2 hours. ERK activation took place with two steps in the case of stimulation at 100 μM. […]

[2] = tested on: p38; experiment: MAP kinase activity by Western blot in CaCo-2 cells: phosphorylated p38; type: cell-based, human
Experimental: as §1, §2, §3, §4, §5

[3] = tested on: caspase-9; experiment: Caspase activity by Western blot (cleaved caspase-9) in CaCo-2 cells; type: cell-based, human
Experimental: The activities of caspase (caspase-3 and caspase-9) and PARP (poly-ADP ribose polymerase) were measured in a manner similar to those in Examples 1 and 2 by Western blot analysis using each of anti-activated (cleaved) caspase antibodies, that is, an anti-cleaved caspase-3 antibody, an anti-cleaved caspase-9 antibody (D330) and an anti-cleaved PARP antibody (D214).
N-(3-oxododecanoyl)-L-homoserine lactones with final concentrations of 30 μM and 100 μM were each added to cultured CaCo-2 cells. Caspase-3, caspase-9 and PARP activities were analyzed over time by Western blot at 0 hours, 1 hour, 2 hours, 4 hours, 6 hours, 8 hours and 10 hours after culture. […] Whereas at 30 μM, activated caspase-3 began to be detected 1 hour after stimulation and the activity lasted until 4 hours after stimulation, at 100 μM the activity peaked at 6 hours and lasted until 10 hours after stimulation. Cleaved caspase-9 and cleaved PARP were detected by reprobing each membrane.
Next, 3 hours of reaction with N-(3-oxododecanoyl)-L-homoserine lactone was carried out at concentrations of 0, 1, 10, 30, and 100 μM, and then caspase and PARP activities were measured.

[4] = tested on: TNF-α; details: mouse macrophage culture system; cited from earlier work

Q: With `CCCCCCCCCC(=O)CC(=O)N[C@H]1CCOC1=O` [N-(3-oxododecanoyl)-L-homoserine lactone] as the compound, how does the ERK activity increase ([1]; 10 μM, 10 minutes) read?
A: 1.5 times

Q: And the ERK activity increase ([1]; 30 μM, 10 minutes)?
A: 7.7 times

Q: And the ERK activity increase ([1]; 100 μM, 10 minutes)?
A: 9.8 times

Q: What about the “activation of ERK” value ([1]; 100 μM, 10 minutes) of the same compound?
A: promoted

Q: And the “concentration at which levels of phosphorylated ERK significantly increased” value ([1]; 10 minutes)?
A: ≥ 10 µM

Q: What about the “time for ERK activity to return to the base level” value ([1]; stimulation at 30 μM) of the same compound?
A: ≤ 30 min

Q: And the “time of peak ERK activity” value ([1]; stimulation at 30 μM)?
A: 10 min

Q: And the “time at which ERK activity began to increase, second step” value ([1]; stimulation at 100 μM)?
A: 4 h

Q: And the “time for ERK activity to return to the base level, first step” value ([1]; stimulation at 100 μM)?
A: ≤ 2 h

Q: And the “time for ERK activity to return to the base level, second step” value ([1]; stimulation at 100 μM)?
A: ≤ 10 h

Q: And the “time of peak ERK activity, first step” value ([1]; stimulation at 100 μM)?
A: 5 min

Q: What about the “time of peak ERK activity, second step” value ([1]; stimulation at 100 μM) of the same compound?
A: 8 h

Q: What about the p38 activity increase ([2]; 10 μM, 10 minutes) of the same compound?
A: 3.2 times

Q: And the p38 activity increase ([2]; 30 μM, 10 minutes)?
A: 4.4 times

Q: And the “activation of p38” value ([2]; 100 μM, 10 minutes)?
A: promoted

Q: What about the p38 activity increase ([2]; 100 μM, 10 minutes) of the same compound?
A: 5.4 times

Q: What about the “concentration at which levels of phosphorylated p38 significantly increased” value ([2]; 10 minutes) of the same compound?
A: ≥ 10 µM

Q: What about the “p38 activity lasted until (after stimulation)” value ([2]; stimulation at 30 μM) of the same compound?
A: 4 h

Q: And the “time of peak p38 activity” value ([2]; stimulation at 30 μM)?
A: 10 min

Q: And the “p38 activity lasted until (after stimulation)” value ([2]; stimulation at 100 μM)?
A: 8 h

Q: And the “time of peak p38 activation” value ([2]; stimulation at 100 μM)?
A: 5 min

Q: And the “caspase-9 activity over time” value ([3]; 30 μM)?
A: strong at 1, 2 and 4 hours

Q: What about the “weak caspase-9 activity lasted until (after stimulation)” value ([3]; 30 μM) of the same compound?
A: 8 h

Q: What about the “strong caspase-9 activity lasted until (after stimulation)” value ([3]; 100 μM) of the same compound?
A: 8 h

Q: And the “concentration at which cleaved caspase (caspase-9) was detected” value ([3]; 3 hours of reaction, 0, 1, 10, 30 and 100 μM)?
A: ≥ 30 µM

Q: And the TNF-α production [4]?
A: promotes
